# Test results: PubChem BioAssay (NCI)
#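 A five-concentration, 48-hour dose response in 96-well plates underlies each endpoint, interpolated linearly between surrounding concentrations. Abbreviation: GI50, concentration required for 50% inhibition of growth. At the TGI there is no net growth.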
# Key:
# Assay in all cases: growth of human tumour cells (NCI), 48 h
# SR leukemia = test system: SR leukemia
# U251 CNS = test system: U251 CNS
# NCI/ADR-RES ovarian = test system: NCI/ADR-RES ovarian
# SNB-75 CNS = test system: SNB-75 CNS
# DU-145 prostate = test system: DU-145 prostate
# OVCAR-5 ovarian = test system: OVCAR-5 ovarian
# M14 melanoma = test system: M14 melanoma
# OVCAR-8 ovarian = test system: OVCAR-8 ovarian
# EKVX NSCLC = test system: EKVX NSCLC
# SF-539 CNS = test system: SF-539 CNS
Structure (SMILES),GI50 (SR leukemia) [µM],TGI (SR leukemia) [µM],GI50 (U251 CNS) [µM],TGI (U251 CNS) [µM],GI50 (NCI/ADR-RES ovarian) [µM],TGI (NCI/ADR-RES ovarian) [µM],GI50 (SNB-75 CNS) [µM],TGI (SNB-75 CNS) [µM],GI50 (DU-145 prostate) [µM],TGI (DU-145 prostate) [µM],GI50 (OVCAR-5 ovarian) [µM],TGI (OVCAR-5 ovarian) [µM],GI50 (M14 melanoma) [µM],TGI (M14 melanoma) [µM],GI50 (OVCAR-8 ovarian) [µM],TGI (OVCAR-8 ovarian) [µM],TGI (EKVX NSCLC) [µM],TGI (SF-539 CNS) [µM],GI50 (SF-539 CNS) [µM],GI50 (EKVX NSCLC) [µM]
Cc1ccc2c(c1)O/C(=C\c1ccc([N+](=O)[O-])o1)C2=O,0.168,0.799,1.82,3.98,2.85,23.1,2.85,> 100,2.25,6.4,2.4,4.75,1.75,4.07,1.4,6.57,–,–,–,–
CCCCCCCCCCCC(O)=C1C(=O)CC(O)CC1=O (stereo unspecified),–,> 100,–,> 100,–,–,–,> 100,–,–,–,> 100,–,> 100,–,> 100,> 100,> 100,–,–
c1ccc2cc(Cn3c[n+](Cc4ccc5ccccc5c4)c4ccccc43)ccc2c1,–,–,–,–,16.6,61.8,–,–,1.51,2.88,1.46,2.89,–,–,–,–,–,3,1.59,–
CC(=O)[C-](C(C)=O)c1ccccc1.CC(=O)[C-](C(C)=O)c1ccccc1.CC[O-].CC[O-].[Ti+4],–,–,> 100,> 100,–,–,> 100,> 100,–,–,> 100,> 100,> 100,> 100,> 100,> 100,> 100,> 100,> 100,> 100
CCCCCCCCCCCC(=O)c1c(O)cccc1O,–,49,–,34,–,–,–,31.9,–,–,–,28.5,–,33.3,–,33.5,33.6,32.4,–,–
COc1ccc(C(=O)C(C(=O)C(=O)Nc2nccs2)c2ccc(OC)cc2)cc1 (stereo unspecified),–,–,–,> 100,–,–,–,> 100,–,–,–,> 100,–,> 100,–,> 100,–,> 100,–,–
COc1cc(Cl)c2c3c(c(C(=O)c4ccccc4)oc13)CCC2,–,–,–,> 100,–,–,–,> 100,–,–,–,–,–,> 100,–,> 100,> 100,> 100,–,–
CN1CCN(c2ccc(NC3=C(Cl)C(=O)c4ncccc4C3=O)cc2C#N)CC1,–,–,2.01,4.44,4.56,24.3,11.7,24.8,2.99,15.5,2.75,7.3,1.74,3.57,2.59,9.37,8.72,15,4.44,2.78
CCCCCC(O)(CCCCC)CCCCCCCCC1=C(O)c2[nH]c(=O)ccc2C(=O)C1=O,–,96.7,–,16.7,–,–,–,32.3,–,–,–,35,–,21.6,–,23.1,28.8,20.3,–,–
BrC1=CC=C2NCCCCCCN=C3C=CC(Br)=CC=C3NCCCCCCN=C2C=C1,–,–,–,> 25.5,–,–,–,> 25.5,–,–,–,> 25.5,–,> 25.5,–,> 25.5,> 25.5,> 25.5,–,–
Oc1c(I)cc(-c2nc3ccccc3s2)cc1CN(Cc1ccccn1)Cc1ccccn1,–,–,0.267,12.9,0.411,2.93,–,–,0.616,> 100,0.928,53.2,0.357,13.1,0.335,37.5,> 100,0.903,0.246,0.321
c1cc(-c2cn[nH]c2)cc(-c2cn[nH]c2)c1,–,> 100,–,> 100,–,–,–,42.7,–,–,–,–,–,> 100,–,> 100,58.6,55.4,–,–
Cc1nc(Nc2ccccc2)sc1C(=O)NNc1ccc([N+](=O)[O-])cc1[N+](=O)[O-],–,65.7,–,> 100,–,–,–,95.3,–,–,–,> 100,–,> 100,–,> 100,71.2,> 100,–,–
COC(=O)/C(=C/c1ccc(OC)cc1)NC(=O)c1ccccc1,–,> 100,–,> 100,–,–,–,> 100,–,–,–,> 100,–,> 100,–,> 100,> 100,> 100,–,–
N[C@@H]1CCCC[C@@H]1N.O=C([O-])CN(CP(=O)([O-])[O-])CP(=O)([O-])[O-].[Pt+2],–,–,> 100,> 100,–,–,> 100,> 100,–,–,–,–,> 100,> 100,> 100,> 100,–,> 100,> 100,–
N#CC(C(=N/NC(N)=S)/C(=N/NC(N)=S)C(C#N)c1ccc(Cl)cc1)c1ccc(Cl)cc1 (stereo unspecified),–,–,–,> 100,–,–,–,92.1,–,–,–,> 100,–,> 100,–,> 100,> 100,> 100,–,–
Cc1cc(N(CCC#N)CCC#N)ccc1N=Nc1cccc(Cl)c1,–,–,–,> 100,–,–,–,–,–,–,–,> 100,–,> 100,–,> 100,> 100,> 100,–,–
Cc1cccc(C)c1NC(=O)CCC(=O)NC(N)=S,–,> 100,–,> 100,–,–,–,> 100,–,–,–,> 100,–,> 100,–,> 100,> 100,> 100,–,–
C=C1CC2(CCCC3(CC(=C)C(=O)O3)C2(C)C)OC1=O (stereo unspecified),–,–,–,4.56,–,27.9,–,34.4,–,15.8,–,3.33,–,8.58,–,7.55,18.4,11.4,–,–
CCCCCCC#CC#Cc1cccc(=O)o1,–,–,2.07,4.92,2.59,15.7,4.34,37.3,3.31,8.26,2.25,4.95,0.878,2.8,1.14,5.47,31.7,12,3.19,13.8
C1=C(c2ccccc2)SC=C(c2ccccc2)S1,–,–,–,> 100,–,64,–,64,–,> 100,–,> 100,–,> 100,–,> 100,> 100,> 100,–,–
CCCCCCNc1nc(N2CCOCC2)c2[nH]c(NCCCCCC)nc2n1,–,–,1.61,3.18,1.59,2.97,1.46,2.77,1.51,2.83,1.61,2.96,1.84,3.39,1.77,3.74,–,3.33,1.82,–
